The subject of one data set is AF goat model. The following applies: cited from earlier work.
Data set [1] has as its system normal dogs under anaesthesia. Conditions: 1 μmol/kg/min; ref Roza and Berman, 1971; cited from earlier work.
Another data set concerns anaesthetized SR dogs. Conditions: 4 mg/kg/40 min, at 40 min; ref Yokoyama et al. (2009); cited from earlier work.
In the next data set the test system is cAVB dogs. In words: Proarrhythmia test. It is filed as in vivo, dog. The following applies: cAVB dogs n = 9, paced 1 Hz; PA‐6 2.5 mg/kg/10 min, dofetilide 0.025 mg/kg/5 min.
In another data set the test system is IK1. The following applies: read-out: IC50 IK1; ref Filgueiras‐Rama et al., 2012; cited from earlier work.
For a further data set, the system named is IKACh. Conditions: read-out: IC50 IKACh; ref Filgueiras‐Rama et al., 2012; cited from earlier work.
A further data set has as its system IKATP. The following applies: read-out: IC50 IKATP; ref Filgueiras‐Rama et al., 2012; cited from earlier work.
Data set [2] relates to Langendorff‐perfused sheep heart. Conditions: ref Noujaim et al., 2011; cited from earlier work.
Where [3] appears, read: awake goats, 1 week of AF, ref Eijsbouts et al., 2006.
Where [4] appears, read: awake goats, 4 weeks of AF, ref Eijsbouts et al., 2006.
Setting [5] is: awake goats, 8 weeks of AF, ref Eijsbouts et al., 2006.
The mark [6] stands for this setting: awake goats, 16 weeks of AF, ref Eijsbouts et al., 2006.

Results on seven compounds are retold here after paper PMC5513871 (British Journal of Pharmacology, 2017).

Molecules are shown by their SMILES. pIC50: −log10 of the molar value. Like-named read-outs stand apart in the source and are kept apart here.

In the case of `c1ccc(C2(c3ccccc3)CC2C2=NCCN2)cc1` (stereo not shown) [cibenzoline], the Cardioversion rate in the data set with AF goat model (3 to 4 weeks of pacing induced persistent AF, ref Eijsbouts et al., 2006) is given as 78%; in the data set with AF goat model (setting [3]), 80%; with AF goat model (setting [4]) it was 78%; with AF goat model (setting [5]), 67%; in the data set with AF goat model (setting [6]), 63%.

On to `CC(C)NC[C@@H](O)c1ccc(NS(C)(=O)=O)cc1` [d‐Sotalol], for which the Cardioversion rate with AF goat model (3 to 4 weeks of pacing induced persistent AF, ref Wijffels et al., 1999) is reported as 92%.

As to `[Ba+2].[Cl-].[Cl-]` [BaCl2], the “Course of events upon infusion” value in data set [1] was “hypotension, flaccid paralysis of skeletal muscles, ventricular tachycardia and fibrillation”.

Consider `N=C(N)c1ccc(OCCCCCOc2ccc(C(=N)N)cc2)cc1` [pentamidine], for which the QTc increase result with anaesthetized SR dogs was “approx. 8%”.

With `CN(CCOc1ccc(NS(C)(=O)=O)cc1)CCc1ccc(NS(C)(=O)=O)cc1` [dofetilide], in the data set with cAVB dogs, the LVMAPD80 is listed as 400 ± 64 ms, the QTc is recorded as 600 ± 33 ms and the STV is 1.82 ± 0.88 ms.

Consider `CCN(CC)CCCC(C)Nc1ccnc2cc(Cl)ccc12` (stereo not shown) [chloroquine], for which the pIC50 with IK1 is 6.16; in the data set on IKACh, 6.42; in the data set on IKATP it was 6.29. The “Concentration terminating cholinergically induced AF” value in data set [2] is 10 µM.

As for `O=C(NCC1CCCCN1)c1cc(OCC(F)(F)F)ccc1OCC(F)(F)F` (stereo not shown) [flecainide], the Cardioversion rate in the data set on AF goat model (setting [3]) is given as 60%; in the data set on AF goat model (setting [4]), 33%; with AF goat model (setting [5]), 33%; with AF goat model (setting [6]), 17%.

A word on the pIC50: it is −log10 of the IC50, conventionally taken in molar units.
